Experimental data published in publication PMC12364115, “High-throughput virtual screening, identification and in vitro biological evaluation of novel inhibitors of PLK1 and NRP1” (Journal of Enzyme Inhibition and Medicinal Chemistry, 2025).

Legend:
NRP1 = target: T1, NRP1 (Homo sapiens, UniProt O14786); test: NRP1 inhibition assay (125I-VEGF-A165 binding, HUVEC cells transfected with NRP1)
T1 construct: expressed in transfected cells; host or cells: HUVEC
Method: The method was as previously described. Briefly, HUVEC cells transfected with NRP1 were added to a 96-well plate and after growing to confluence, and the compounds were added to each well at different concentrations. Then, the ^125I-VEGF-A165 (0.1 nM) was added to measure non-specific binding. Data curves were plotted and half maximal inhibitory concentrations (IC50) were derived for the selected compounds using Prism 6.0 software.

PLK1 = target: T2, PLK1 (Homo sapiens, UniProt P53350); test: PLK1 inhibition assay; format: biochemical
T2 construct: purchased Abcam (Cambridge, MA, USA)
T2 sequence (P53350 whole entry): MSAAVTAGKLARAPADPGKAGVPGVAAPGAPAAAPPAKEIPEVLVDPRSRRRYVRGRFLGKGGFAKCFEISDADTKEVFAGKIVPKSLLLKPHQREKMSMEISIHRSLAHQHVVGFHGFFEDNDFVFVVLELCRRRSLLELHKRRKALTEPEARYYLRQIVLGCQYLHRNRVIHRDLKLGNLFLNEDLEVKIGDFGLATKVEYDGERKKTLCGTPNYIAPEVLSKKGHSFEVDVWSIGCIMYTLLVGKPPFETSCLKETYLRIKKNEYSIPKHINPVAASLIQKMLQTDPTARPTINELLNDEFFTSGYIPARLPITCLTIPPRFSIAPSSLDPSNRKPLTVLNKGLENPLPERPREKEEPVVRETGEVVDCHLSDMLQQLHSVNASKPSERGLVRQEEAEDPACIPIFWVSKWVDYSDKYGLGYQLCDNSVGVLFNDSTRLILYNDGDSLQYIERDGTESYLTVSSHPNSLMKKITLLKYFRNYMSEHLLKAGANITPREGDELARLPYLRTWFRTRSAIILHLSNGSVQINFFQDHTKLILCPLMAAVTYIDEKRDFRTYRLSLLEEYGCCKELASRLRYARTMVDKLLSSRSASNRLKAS
Method: The method was as previously described. Briefly, the enzyme reaction mixture containing different doses of compounds was incubated for 90 min at room temperature. Then the mixture was transferred to a Neutravidin-coated 384-well plate and incubated for 60 min at room temperature. Then the wells were incubated with 50 μL of the antibody mixture for 1 h. The bound europium was liberated using 50 μL of Enhancement Solution.

NCI-H460 cells = test: MTT assay NCI-H460; format: cell-based, human
Method: (§1) The lung cancer cells NCI-H460 (large cell lung carcinoma), A549 (adenocarcinoma), A427 (adenocarcinoma) and normal lung cells BEAS-2B (human normal lung epithelial cells) were purchased from The American Type Culture Collection (ATCC) (Manassas, VA, USA). The cells were cultured with Roswell Park Memorial Institute (RPMI) ‐1640 medium. The temperature of the cell culture was maintained at 37 °C. Hit compounds were obtained commercially from WuXi AppTec (PLN-1, Lot NO: P112561-P1; PLN-2, Lot NO: P112561-P2; PLN-3, Lot NO: P112561-P3; PLN-4, Lot NO: P112561-P4; PLN-5, Lot NO: P112561-P5) (Table S1). The purity of PLN 1-5 was more than 98% as determined by HPLC (Supplementary material). Human PLK1 and NRP1 proteins were purchased from Abcam (Cambridge, MA, USA).
(§2) Cells were seeded in 96-well plates (5 × 10^4 cells/well) and incubated overnight. Cells were incubated with different concentrations of PLN-5 at 37 °C for 72 h. After removal of the medium, MTT stock solution (5 mg/ml) was added and the incubation continued for 4 h. After centrifugation, the insoluble crystals were dissolved in dimethyl sulfoxide and gently shaken for 15 min. Finally, absorbance was measured at 570 nm using a microplate reader. The IC50 were calculated using Prism 6.0 software.

A549 cells = test: MTT assay A549; format: cell-based; conditions: Homo sapiens, 72 h treatment, mean ± SD, n = 3
Method: as §1, §2

BEAS-2B cells = test: MTT assay BEAS-2B; format: cell-based, human; conditions: normal lung cells, 72 h treatment, n = 3
Method: as §1, §2

PLK2 = target: T3, PLK2 (Homo sapiens, UniProt Q9NYY3); test: In vitro selectivity assay PLK2; format: biochemical
T3 construct: ICE Bioscience Inc (Beijing, China) (performed the assay)
T3 sequence (Q9NYY3 whole entry, species assumed): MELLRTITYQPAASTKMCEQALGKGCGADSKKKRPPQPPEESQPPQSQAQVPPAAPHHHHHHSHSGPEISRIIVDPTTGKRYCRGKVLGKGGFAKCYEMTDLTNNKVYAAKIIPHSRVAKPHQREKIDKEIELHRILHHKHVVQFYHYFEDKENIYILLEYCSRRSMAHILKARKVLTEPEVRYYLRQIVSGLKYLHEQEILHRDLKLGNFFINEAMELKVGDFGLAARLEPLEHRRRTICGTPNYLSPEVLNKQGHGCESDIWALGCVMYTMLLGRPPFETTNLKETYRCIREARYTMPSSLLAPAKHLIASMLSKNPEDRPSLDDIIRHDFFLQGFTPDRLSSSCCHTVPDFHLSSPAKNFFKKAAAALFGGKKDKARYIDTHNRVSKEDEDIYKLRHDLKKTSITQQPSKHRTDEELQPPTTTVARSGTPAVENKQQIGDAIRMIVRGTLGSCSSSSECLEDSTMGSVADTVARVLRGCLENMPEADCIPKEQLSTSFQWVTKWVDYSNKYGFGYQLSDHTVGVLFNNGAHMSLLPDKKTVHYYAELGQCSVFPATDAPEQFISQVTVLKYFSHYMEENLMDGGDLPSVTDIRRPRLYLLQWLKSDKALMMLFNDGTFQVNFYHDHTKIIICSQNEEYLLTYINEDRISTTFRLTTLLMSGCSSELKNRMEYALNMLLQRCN
Method: (§3) To assess the selectivity of PLN-5, we systematically determined its inhibitory activity against PLK2, PLK3, PLK4 (homologues of PLK1) and […]. This assay was performed by ICE Bioscience Inc (Beijing, China).

A427 cells = test: MTT assay A427; format: cell-based; conditions: Homo sapiens, A-427, 72 h treatment, mean ± SD, n = 3
Method: as §1, §2

PLK3 = target: T4, PLK3 (Homo sapiens, UniProt Q9H4B4); test: In vitro selectivity assay PLK3; format: biochemical; conditions: n = 3
T4 construct: ICE Bioscience Inc (Beijing, China) (performed the assay)
T4 sequence (Q9H4B4 whole entry, species assumed): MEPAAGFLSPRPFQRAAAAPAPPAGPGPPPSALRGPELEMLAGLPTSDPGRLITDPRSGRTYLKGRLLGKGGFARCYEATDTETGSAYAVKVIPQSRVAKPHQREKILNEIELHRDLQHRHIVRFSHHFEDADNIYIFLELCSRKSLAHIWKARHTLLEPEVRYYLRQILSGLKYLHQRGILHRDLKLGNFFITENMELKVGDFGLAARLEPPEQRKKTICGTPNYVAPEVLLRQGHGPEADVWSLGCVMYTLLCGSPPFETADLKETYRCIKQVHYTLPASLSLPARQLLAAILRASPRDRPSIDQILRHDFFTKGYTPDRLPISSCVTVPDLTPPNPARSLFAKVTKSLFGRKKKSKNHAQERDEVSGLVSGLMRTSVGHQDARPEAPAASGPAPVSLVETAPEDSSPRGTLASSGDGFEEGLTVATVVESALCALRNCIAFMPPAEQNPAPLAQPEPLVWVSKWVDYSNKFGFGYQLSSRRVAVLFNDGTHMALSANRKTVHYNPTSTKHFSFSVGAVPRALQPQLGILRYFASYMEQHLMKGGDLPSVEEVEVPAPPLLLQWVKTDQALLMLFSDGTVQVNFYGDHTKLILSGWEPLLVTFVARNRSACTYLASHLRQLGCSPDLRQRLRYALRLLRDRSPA
Method: as §3

NRP2 = target: T5, NRP2 (Homo sapiens, UniProt O60462); test: In vitro selectivity assay NRP2; format: biochemical; conditions: n = 3
T5 construct: ICE Bioscience Inc (Beijing, China) (performed the assay)
T5 sequence (O60462 21-931): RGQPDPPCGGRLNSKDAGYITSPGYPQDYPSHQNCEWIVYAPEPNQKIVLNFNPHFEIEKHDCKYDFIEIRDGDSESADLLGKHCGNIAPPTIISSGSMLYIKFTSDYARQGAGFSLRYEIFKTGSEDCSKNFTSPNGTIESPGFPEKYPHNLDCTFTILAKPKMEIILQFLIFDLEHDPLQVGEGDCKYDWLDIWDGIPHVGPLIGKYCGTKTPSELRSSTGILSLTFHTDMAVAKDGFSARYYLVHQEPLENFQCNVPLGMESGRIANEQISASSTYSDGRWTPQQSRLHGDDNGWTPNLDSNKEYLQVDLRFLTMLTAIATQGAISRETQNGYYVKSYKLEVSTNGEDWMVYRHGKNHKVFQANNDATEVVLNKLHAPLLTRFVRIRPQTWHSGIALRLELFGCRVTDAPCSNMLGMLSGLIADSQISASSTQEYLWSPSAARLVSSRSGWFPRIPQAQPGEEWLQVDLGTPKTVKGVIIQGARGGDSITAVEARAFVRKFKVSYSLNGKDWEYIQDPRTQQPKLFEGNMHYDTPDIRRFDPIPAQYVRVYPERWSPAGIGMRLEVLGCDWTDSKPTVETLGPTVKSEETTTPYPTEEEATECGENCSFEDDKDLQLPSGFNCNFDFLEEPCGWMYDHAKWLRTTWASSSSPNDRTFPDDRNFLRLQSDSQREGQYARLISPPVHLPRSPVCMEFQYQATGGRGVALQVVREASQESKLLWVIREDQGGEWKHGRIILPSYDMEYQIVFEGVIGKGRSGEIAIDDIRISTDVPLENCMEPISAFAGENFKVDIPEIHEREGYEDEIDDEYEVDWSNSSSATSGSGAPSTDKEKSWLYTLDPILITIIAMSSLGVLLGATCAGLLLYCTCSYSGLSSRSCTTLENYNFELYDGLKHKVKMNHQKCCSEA
Method: as §3

PLK4 = target: T6, PLK4 (Homo sapiens, UniProt O00444); test: In vitro selectivity assay PLK4; format: biochemical
T6 construct: ICE Bioscience Inc (Beijing, China) (performed the assay)
T6 sequence (O00444 1-970): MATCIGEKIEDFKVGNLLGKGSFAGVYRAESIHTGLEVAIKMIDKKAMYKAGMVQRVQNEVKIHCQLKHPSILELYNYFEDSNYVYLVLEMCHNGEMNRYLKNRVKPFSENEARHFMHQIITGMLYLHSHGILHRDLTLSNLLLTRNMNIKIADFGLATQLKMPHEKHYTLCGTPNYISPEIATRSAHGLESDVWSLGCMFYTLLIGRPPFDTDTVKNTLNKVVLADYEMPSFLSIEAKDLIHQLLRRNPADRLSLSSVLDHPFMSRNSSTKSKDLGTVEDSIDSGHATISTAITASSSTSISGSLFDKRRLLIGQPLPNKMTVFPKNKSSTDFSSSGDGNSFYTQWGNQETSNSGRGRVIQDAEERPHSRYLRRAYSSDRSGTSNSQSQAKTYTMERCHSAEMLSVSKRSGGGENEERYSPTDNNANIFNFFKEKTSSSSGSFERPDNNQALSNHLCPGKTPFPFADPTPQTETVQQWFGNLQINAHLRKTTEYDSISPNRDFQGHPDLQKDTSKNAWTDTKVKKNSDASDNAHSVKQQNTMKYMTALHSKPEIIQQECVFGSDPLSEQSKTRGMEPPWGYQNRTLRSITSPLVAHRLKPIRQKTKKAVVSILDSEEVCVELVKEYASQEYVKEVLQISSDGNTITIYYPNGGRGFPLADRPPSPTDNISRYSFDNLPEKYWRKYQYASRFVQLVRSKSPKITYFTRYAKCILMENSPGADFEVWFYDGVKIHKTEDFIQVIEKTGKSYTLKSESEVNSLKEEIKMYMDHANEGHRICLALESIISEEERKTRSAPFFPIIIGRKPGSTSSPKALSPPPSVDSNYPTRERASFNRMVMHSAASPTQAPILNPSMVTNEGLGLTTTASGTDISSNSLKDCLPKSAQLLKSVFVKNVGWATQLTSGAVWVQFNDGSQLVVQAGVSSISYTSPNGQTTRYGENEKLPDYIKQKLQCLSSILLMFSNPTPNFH
Method: as §3

T1 sequence (O14786 22-923): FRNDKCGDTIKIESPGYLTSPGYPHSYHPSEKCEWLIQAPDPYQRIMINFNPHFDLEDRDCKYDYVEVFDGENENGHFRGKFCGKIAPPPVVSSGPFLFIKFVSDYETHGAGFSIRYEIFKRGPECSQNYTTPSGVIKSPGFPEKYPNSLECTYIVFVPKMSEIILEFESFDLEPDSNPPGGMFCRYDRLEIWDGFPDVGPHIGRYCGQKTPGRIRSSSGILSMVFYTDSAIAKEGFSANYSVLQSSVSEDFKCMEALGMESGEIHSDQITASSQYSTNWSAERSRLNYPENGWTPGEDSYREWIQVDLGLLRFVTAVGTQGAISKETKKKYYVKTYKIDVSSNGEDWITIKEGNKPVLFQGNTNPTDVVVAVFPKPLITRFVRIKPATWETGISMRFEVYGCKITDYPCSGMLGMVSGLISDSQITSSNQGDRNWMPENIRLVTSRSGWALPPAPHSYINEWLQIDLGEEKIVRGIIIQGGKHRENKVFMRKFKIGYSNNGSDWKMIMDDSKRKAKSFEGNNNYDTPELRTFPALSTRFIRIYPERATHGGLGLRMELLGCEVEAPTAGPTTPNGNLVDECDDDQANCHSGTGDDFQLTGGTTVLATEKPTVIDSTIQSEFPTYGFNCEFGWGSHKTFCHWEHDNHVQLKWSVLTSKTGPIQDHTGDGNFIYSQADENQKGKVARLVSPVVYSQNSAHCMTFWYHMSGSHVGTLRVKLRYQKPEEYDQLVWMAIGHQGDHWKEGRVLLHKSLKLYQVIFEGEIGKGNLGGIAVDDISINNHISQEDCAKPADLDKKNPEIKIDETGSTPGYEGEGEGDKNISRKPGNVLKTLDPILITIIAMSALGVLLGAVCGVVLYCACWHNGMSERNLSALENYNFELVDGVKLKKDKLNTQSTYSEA

## COc1ncc(Nc2ncc3c(n2)-c2ccc(Cl)cc2NC(=O)C3)cc1CCCCCC(=O)N[C@@H](CCCN=C(N)N)C(=O)O [PLN-3]
NRP1; mean ± SD, n = 3
  IC50: 30.5 ± 2.55 nM
PLK1; mean ± SD, n = 3
  IC50: 11.4 ± 0.74 nM

## Cc1ncc(CCCN(C)CC(=O)N[C@@H](CCCN=C(N)N)C(=O)O)cc1Nc1ncc2c(n1)-c1ccc(C#N)cc1NC(=O)C2 [PLN-1]
NRP1; mean ± SD, n = 3
  IC50: 12.7 ± 0.81 nM
PLK1; mean ± SD, n = 3
  IC50: 8.12 ± 0.34 nM

## Cc1ncc(CCCN(C)CC(=O)N[C@@H](CCCN=C(N)N)C(=O)O)cc1Nc1ncc2c(n1)-c1ccc(Cl)cc1NC(=S)C2 [PLN-5]
NCI-H460 cells; 2 μM compound
  cell survival rate of NCI-H460 cells: lowest survival rate
NCI-H460 cells; Homo sapiens, NCI-H460, 72 h treatment, MTT, mean ± SD, n = 3
  IC50: 0.27 ± 0.02 µM
NCI-H460 cells; MTT assay
  inhibition rate against NCI-H460 cells: more than 90%
A549 cells
  IC50: 0.41 ± 0.03 µM
BEAS-2B cells; Homo sapiens, BEAS-2B
  IC50: > 10 µM
BEAS-2B cells
  IC50 (μM) BEAS-2B: no significant inhibitory effect
NRP1; mean ± SD, n = 3
  IC50: 5.15 ± 0.24 nM
NRP1; ratio of IC50 values vs positive control EG00229
  NRP1 potency relative to EG00229: ~124 fold
PLK1; mean ± SD, n = 3
  IC50: 2.07 ± 0.13 nM
PLK1; ratio of IC50 values vs positive control onvansertib
  PLK1 potency relative to onvansertib: approximately 9 fold
PLK2
  IC50: > 10000 nM
A427 cells
  IC50: 0.33 ± 0.02 µM
PLK3
  IC50: > 10 µM
NRP2
  IC50: > 10 µM
PLK4
  IC50: > 10000 nM

## CCc1ccc2c(c1)NC(=O)Cc1cnc(Nc3cc(CCCN(C)CC(=O)N[C@@H](CCCN=C(N)N)C(=O)O)cnc3C)nc1-2 [PLN-4]
NRP1; mean ± SD, n = 3
  IC50: 7.83 ± 0.42 nM
PLK1; mean ± SD, n = 3
  IC50: 4.51 ± 0.26 nM

## CN1CCN(c2ccc(OC(F)(F)F)c(Nc3ncc4c(n3)-c3c(c(C(N)=O)nn3CCO)CC4)c2)CC1 [Onvansertib, onvansertib, reference compound]
NRP1; mean ± SD, n = 3
  NRP1 (IC50, nM): no inhibition

## NC(N)=NCCC[C@H](NC(=O)CCCCCc1cncc(Nc2ncc3c(n2)-c2ccc(Cl)cc2NC(=O)C3)c1)C(=O)O [PLN-2]
NRP1; mean ± SD, n = 3
  IC50: 24.3 ± 1.29 nM
PLK1; mean ± SD, n = 3
  IC50: 16.5 ± 2.86 nM

## NC(N)=NCCC[C@H](NC(=O)c1sccc1NS(=O)(=O)c1cccc2nsnc12)C(=O)O [EG00229, reference compound]
NRP1; mean ± SD, n = 3
  IC50: 640 ± 20.8 nM
PLK1; mean ± SD, n = 3
  PLK1 (IC50, nM): no inhibition
